Laboratory results from patent US10716771B2, “Pharmaceutical composition for preventing or treating immune diseases or inflammatory diseases, containing biguanide derivative compound as active ingredient” (THE CATHOLIC UNIVERSITY OF KOREA INDUSTRY-ACADEMIC …, priority 2013, dated 2020).

Experiments:
[1] = test system: IgG; assay: IgG (autoantibody) ELISA, Example 8-2; assay type: cell-based, mouse; conditions: incubated supernatant, compared with metformin
Description: In order to evaluate an arthritis therapeutic effect of the biguanide derivative compound of the present invention, in a rheumatoid arthritis animal model, cytotoxicity, generation of autoantibody, expression of inflammatory cytokines and regulatory T cells (Treg), and osteoclast differentiation were measured. Like Examples, metformin was used as a control group.
(§1) In order to examine an effect of suppressing the generation of autoantibody of the biguanide derivative compound of the present invention, the incubated supernatant was collected and the IgG expression degree was examined by using an ELISA. A monoclonal anti-IgG was reacted at 4° C. overnight in a 96-well plate and then a non-specific binding was blocked by a blocking solution. A mouse control serum was continuously diluted by 1/2 to be used as a standard, added with the cell-incubated supernatant, and reacted at room temperature for 2 hrs. Thereafter, HRP-anti-IgG was reacted at room temperature for 2 hrs, washed four times after reaction, added with the diluted HRP-conjugate, and reacted at room temperature for 2 hrs.

[2] = Cytotoxicity (MTT) in lupus animal model; assay type: cell-based
Description: In order to examine cytotoxicity of the biguanide derivative compound of the present invention, an MTT assay was performed. Cells were isolated from the spleen in a normal mouse group and the isolated cells were incubated for 3 days in the concentration of 0.5 μg/ml of anti-CD3 or 100 ng/ml of LPS 100, and metformin, SD-196, SD-216 or SD-217 was treated for each concentration and incubated for 3 days. […] In order to evaluate a lupus therapeutic effect of the biguanide derivative compound of the present invention, in a lupus animal model, cytotoxicity, autoantibody generation, generation of inflammatory cytokines, and Th17 regulation were measured by the same method as Example 8.

[3] = test system: regulatory T cells (Treg); assay: Regulatory T cell (Treg) expression in rheumatoid arthritis disease model with metabolic syndrome; assay type: cell-based
Description: (§2) Further, in order to examine whether the biguanide derivative compound of the present invention activates the expression of regulatory T cells (Treg), the incubated cells were flow-cytometry by using anti-CD4-percp, anti-CD25-APC, and anti Foxp3-Pe fluorescent antibodies (ab), and as a result, it was verified that SD-196, 216 and 217 activated the Foxp3+ Treg cells (see FIG. 10).
(§3) Further, the incubated cells were analyzed by flow cytometry using anti-CD4-percp and anti-IL-17-Pe fluorescent antibodies, and as a result, it was verified that SD-196, 216 and 217 suppressed the activity of Th17 and simultaneously activated the expression of the regulatory T cells (Treg) (see FIG. 13).

[4] = test system: Th17; assay: Th17 activity by flow cytometry in rheumatoid arthritis disease model with metabolic syndrome; assay type: cell-based; conditions: flow cytometry anti-CD4, anti-IL-17
Description: as §3

[5] = Cytotoxicity (MTT) in rheumatoid arthritis disease model with metabolic syndrome; assay type: cell-based
Description: In order to examine cytotoxicity of the biguanide derivative compound of the present invention, an MTT assay was performed. Cells were isolated from the spleen in a normal mouse group and the isolated cells were incubated for 3 days in the concentration of 0.5 μg/ml of anti-CD3 or 100 ng/ml of LPS 100, and metformin, SD-196, SD-216 or SD-217 was treated for each concentration and incubated for 3 days.
as §3

[6] = test system: IgG; assay: IgG generation in lupus animal model; assay type: cell-based; conditions: compared with metformin
Description: as §1
In order to evaluate a lupus therapeutic effect of the biguanide derivative compound of the present invention, in a lupus animal model, cytotoxicity, autoantibody generation, generation of inflammatory cytokines, and Th17 regulation were measured by the same method as Example 8.

[7] = test system: IL-17; assay: IL-17 expression in rheumatoid arthritis disease model with metabolic syndrome; assay type: cell-based
Description: (§4) In order to evaluate an effect of suppressing the expression of the inflammatory cytokine of the biguanide derivative compound of the present invention, the incubated supernatant was collected and the expression degrees of IL-17 and TNF-α of a mouse were examined by using a sandwich ELISA. […] of a monoclonal anti-IL-17 or anti-TNF-α was reacted in a 96-well plate at 4° C. overnight and then a non-specific binding was blocked by a blocking solution (1% BSA/PBST) after the reaction. An IL-17 or TNF-α recombinant was continuously diluted by 1/2 to be used as a standard, added with the cell-incubated supernatant, and reacted at room temperature for 2 hrs. Thereafter, biotinylated anti-IL-17 or anti-TNF-α was added and reacted at room temperature for 2 hrs, washed four times after the reaction, diluted with a diluted ExtraAvidin-alkaline phosphatase conjugate, and reacted at room temperature for 2 hrs. After the reaction, a PNPP/DEA was added and colored, and absorbance was measured at a wavelength of 405 nm.
as §3

[8] = test system: Foxp3+ Treg cells; assay: Regulatory T cell (Treg) expression by flow cytometry, Example 8-3; assay type: cell-based, mouse; conditions: anti-CD4, anti-CD25, anti Foxp3
Description: as §2, with “In order to evaluate an arthritis therapeutic effect of the biguanide derivative compound of the present invention, in a rheumatoid arthritis animal model, cytotoxicity, generation of autoantibody, expression of inflammatory cytokines and regulatory T cells (Treg), and osteoclast differentiation were measured. Like Examples, metformin was used as a control group. Further,” for “Further,”

[9] = test system: TNF-α; assay: TNF-α sandwich ELISA, Example 8-3; assay type: cell-based, mouse; conditions: incubated supernatant
Description: as §4, with “In order to evaluate an arthritis therapeutic effect of the biguanide derivative compound of the present invention, in a rheumatoid arthritis animal model, cytotoxicity, generation of autoantibody, expression of inflammatory cytokines and regulatory T cells (Treg), and osteoclast differentiation were measured. Like Examples, metformin was used as a control group. In” for “In”

[10] = test system: IL-17; assay: IL-17 sandwich ELISA, Example 8-3; assay type: cell-based, mouse; conditions: incubated supernatant
Description: as §4, with “In order to evaluate an arthritis therapeutic effect of the biguanide derivative compound of the present invention, in a rheumatoid arthritis animal model, cytotoxicity, generation of autoantibody, expression of inflammatory cytokines and regulatory T cells (Treg), and osteoclast differentiation were measured. Like Examples, metformin was used as a control group. In” for “In”

| SMILES | expression of IgG [1] | cytotoxicity [2] | expression of the regulatory T cells (Treg) [3] | activity of Th17 [4] | cytotoxicity [5] | expression of IgG [6] | expression of IL-17 [7] | Foxp3+ Treg cells [8] | TNF-α inflammatory cytokine expression [9] | IL-17 inflammatory cytokine expression [10] |
| --- | --- | --- | --- | --- | --- | --- | --- | --- | --- | --- |
| N=C(N)NC(=N)Nc1ccc(F)cc1F [SD-000217, 1-(2,4-difluorophenyl)biguanide] | significantly suppressed | no cytotoxicity | activated | suppressed | did not have the cytotoxicity | significantly suppressed | suppressed | activated | significantly suppressed | significantly suppressed |
| CC(C)NC(=N)NC(=N)N [SD-000196, 1-isopropylbiguanide] | significantly suppressed | no cytotoxicity | activated | suppressed | did not have the cytotoxicity | significantly suppressed | suppressed | activated | significantly suppressed | significantly suppressed |
| NC(N)=N/C(N)=N/c1cccc(F)c1 [SD-000216, 1-(3-fluorophenyl)biguanide] | significantly suppressed | no cytotoxicity | activated | suppressed | did not have the cytotoxicity | significantly suppressed | suppressed | activated | significantly suppressed | significantly suppressed |
